According to patent US9969723B2, “3-(4-(benzyloxy)phenyl)hex-4-ynoic acid derivative, method of preparing same and pharmaceutical composition for preventing and treating metabolic disease including same as effective ingredient” (HYUNDAI PHARM CO., LTD, priority 2014, dated 2018):
Where two headings read alike, the source gives them in different places.

How the values were obtained:
CYP3A4 = CYP3A4 (Homo sapiens (Human), UniProt P08684); assay: CYP inhibition (BD GENTEST kit); type: in vitro ADME; details: pH 7.4, read-out: CYP inhibition (%) 3A4
Description: (§1) CYP is the enzyme involved in drug metabolism. So, the inhibition of this enzyme can change the prediction of dose of a drug and toxicity caused by the co-treatment with other drugs. Therefore, the inventors measured the inhibitory effect of the compounds of Examples of the invention on endogenous CYP3A4, CYP2C9, CYP1A2, CYP2D6, and CYP2C19. At this time, Invitrogen (P2862) was used as the CYP2D6 inhibition kit, and BD GENTEST (459100, 459300, 459400, 459500) was used as the CYP1A2, CYP2C9, CYP2C19, and CYP3A4 inhibition kit. To prepare the Invitrogen kit, the test sample was diluted in distilled water at 2.5× of the final experimental concentration.
(§2) The test sample for BD GENTEST kit was diluted in acetonitrile at 50× of the final experimental concentration. NADPH-coenzyme mixture was prepared by diluting the coenzyme, G6PDH, and regulatory protein included in the kit with distilled water at the concentration instructed by the kit. The prepared 50× sample (4 μL) and the NADPH-coenzyme mixture (96 μL) were mixed in each well of U-bottom 96-well plate, followed by pre-culture for 10 minutes in a 37° C. incubator. Enzyme/substrate mixed solution was prepared by diluting the buffer (0.5 M potassium phosphate, pH 7.4), each CYP450 enzyme/substrate mixed solution included in the kit with distilled water at the instructed concentration. Upon completion of the pre-culture, 100 μL of the enzyme/substrate mixed solution was added in each well of the plate, followed by culture in a 37° C. incubator for 15 minutes (CYP 1A2), 30 minutes (CYP 3A4 and CYP 2C19) or 1 and half hours (CYP 2C9). Upon completion of the reaction, the reactant was transferred onto the white plate, and then fluorescence was measured with a microplate reader (CYP 1A2 and CYP 2C19 excitation wavelength: 410 nm, absorption wavelength: 460 nm; CYP 2C9 and CYP 3A4 excitation wavelength: 409 nm, absorption wavelength: 530 nm). The values obtained above were converted into % as the inhibition rate of the sample by the value of the non-treated group.

GPR40 = GPR40 (Homo sapiens (Human), UniProt O14842); assay: GPR40 protein activity by intracellular calcium concentration (Fluo-4, Flexstation 3) in transfected HEK-293 cells; type: cell-based; details: HEK-293 cells transfected with human GPR40, intracellular calcium
Experimental: The GPR40 protein activity according to the novel 3-(4-(benzyloxy)phenyl)hex-4-inoic acid derivative of the present invention was measured by investigating the changes in intracellular calcium concentration affected by the GRP40 activation. First, HEK-293 cells were transfected with human GPR40 DNA (Origene, RC218370) by using Fugene HD (Promega, E2311). […] 24 hours later, the cell culture medium was replaced with Dulbecco's Modified Eagle Medium (DMEM, 50 μl/well) supplemented with 1% fetal bovine serum (FBS). To measure the calcium concentration, 50 μl of Fluo-4 reagent (Invitrogen, F10471) was added to each well, followed by culture in a 37° C. incubator for 2 hours. […] 2 hours after the culture began, those prepared samples were automatically injected to the cells by using Flexstation 3 (Molecular Devices). Then, intracellular calcium concentration was measured for 120 seconds by using SoftMax® Pro software. At this time, dimethylsulfoxide (DMSO) was injected to the cells for the non-treated group, followed by measuring the calcium concentration therein. The GPR40 protein activity was calculated by the below mathematical formula 1 with the results of calcium concentration measurement. GPR40 activity=(intracellular calcium concentration increased by the sample)/(intracellular calcium concentration of the non-treated group)×100 [Mathematical Formula 1]

CYP2C19 = CYP2C19 (Homo sapiens (Human), UniProt P33261); assay: CYP inhibition (BD GENTEST kit); type: in vitro ADME; details: pH 7.4, read-out: CYP inhibition (%) 2C19
Experimental: (§3) CYP is the enzyme involved in drug metabolism. So, the inhibition of this enzyme can change the prediction of dose of a drug and toxicity caused by the co-treatment with other drugs. Therefore, the inventors measured the inhibitory effect of the compounds of Examples of the invention on endogenous CYP3A4, CYP2C9, CYP1A2, CYP2D6, and CYP2C19. […] To prepare the Invitrogen kit, the test sample was diluted in distilled water at 2.5× of the final experimental concentration.
as §2, with “Upon completion of the reaction, the reactant was transferred onto the white plate, and then fluorescence was measured with a microplate reader (CYP 1A2 and CYP 2C19 excitation wavelength: 410 nm, absorption wavelength: 460 nm; CYP 2C9 and CYP 3A4 excitation wavelength: 409 nm, absorption wavelength: 530 nm).” left out

CYP1A2 = CYP1A2 (Homo sapiens (Human), UniProt P05177); assay: CYP inhibition (BD GENTEST kit); type: in vitro ADME; details: pH 7.4
Experimental: as §3
as §2, with “Upon completion of the reaction, the reactant was transferred onto the white plate, and then fluorescence was measured with a microplate reader (CYP 1A2 and CYP 2C19 excitation wavelength: 410 nm, absorption wavelength: 460 nm; CYP 2C9 and CYP 3A4 excitation wavelength: 409 nm, absorption wavelength: 530 nm).” left out

CYP2C9 = CYP2C9 (Homo sapiens (Human), UniProt P11712); assay: CYP inhibition (BD GENTEST kit); type: in vitro ADME; details: pH 7.4, read-out: CYP inhibition (%) 2C9
Experimental: as §3
as §2, with “Upon completion of the reaction, the reactant was transferred onto the white plate, and then fluorescence was measured with a microplate reader (CYP 1A2 and CYP 2C19 excitation wavelength: 410 nm, absorption wavelength: 460 nm; CYP 2C9 and CYP 3A4 excitation wavelength: 409 nm, absorption wavelength: 530 nm).” left out

CYP2D6 = CYP2D6 (Homo sapiens (Human), UniProt P10635); assay: CYP inhibition (Invitrogen Vivid kit); type: in vitro ADME; details: probe Vivid CYP450 substrate, read-out: CYP inhibition (%) 2D6
Description: as §1
P450 BACULOSOMES® reagent and reproducer (100×) included in Invitrogen kit were diluted in Vivid® CYP450 reaction buffer (2×) at the concentration that matched the target CYP450. The prepared 2.5× sample (80 μL) and the diluted P450 BACULOSOMES® reagent mixture (100 μL) were mixed in each well of U-bottom 96-well plate, followed by pre-culture for 20 minutes. Vivid® CYP450 substrate and NADP+ (100×) were diluted in Vivid® CYP450 reaction buffer (2×) at the concentration that matched the target CYP450 and the substrate. Upon completion of the pre-culture, substrate-NADP (nicotinamide adenine dinucleotide phosphate) mixed solution (20 μL) was added thereto, followed by reaction for 1 hour. Upon completion of the reaction, the reactant was transferred onto the white plate, and then fluorescence was measured with a microplate reader (CYP 2D6 excitation wavelength: 400 nm, absorption wavelength: 502 nm). […]

[1] = CYP3A4 enzyme of BD GENTEST inhibition kit
[2] = CYP2C19 enzyme of BD GENTEST inhibition kit
[3] = CYP2C9 enzyme of BD GENTEST inhibition kit
[4] = P450 BACULOSOMES reagent (Invitrogen Vivid CYP2D6 kit P2862)
[5] = CYP3A4 enzyme of the BD GENTEST CYP3A4 inhibition kit
[6] = CYP2C19 enzyme of the BD GENTEST CYP2C19 inhibition kit
[7] = CYP2C9 enzyme of the BD GENTEST CYP2C9 inhibition kit
[8] = CYP2D6 P450 BACULOSOMES reagent (Invitrogen kit P2862)

Chain of CYP1A2 (P05177 whole entry): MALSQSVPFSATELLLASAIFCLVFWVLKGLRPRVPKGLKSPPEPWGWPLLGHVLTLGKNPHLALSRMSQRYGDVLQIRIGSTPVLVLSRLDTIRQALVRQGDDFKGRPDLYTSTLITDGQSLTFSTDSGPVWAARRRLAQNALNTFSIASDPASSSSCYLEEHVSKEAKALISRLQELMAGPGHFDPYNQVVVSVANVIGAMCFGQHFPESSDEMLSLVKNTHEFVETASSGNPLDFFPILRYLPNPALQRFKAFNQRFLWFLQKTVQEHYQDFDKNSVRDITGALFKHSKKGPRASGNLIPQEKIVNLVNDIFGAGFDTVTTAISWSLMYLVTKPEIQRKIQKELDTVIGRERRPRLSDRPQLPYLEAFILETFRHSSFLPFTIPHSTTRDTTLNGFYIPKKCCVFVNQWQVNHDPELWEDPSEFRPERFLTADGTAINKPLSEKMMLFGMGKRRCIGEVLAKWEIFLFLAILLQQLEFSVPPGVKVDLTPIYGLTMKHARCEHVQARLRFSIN
Chain of GPR40 (O14842 whole entry): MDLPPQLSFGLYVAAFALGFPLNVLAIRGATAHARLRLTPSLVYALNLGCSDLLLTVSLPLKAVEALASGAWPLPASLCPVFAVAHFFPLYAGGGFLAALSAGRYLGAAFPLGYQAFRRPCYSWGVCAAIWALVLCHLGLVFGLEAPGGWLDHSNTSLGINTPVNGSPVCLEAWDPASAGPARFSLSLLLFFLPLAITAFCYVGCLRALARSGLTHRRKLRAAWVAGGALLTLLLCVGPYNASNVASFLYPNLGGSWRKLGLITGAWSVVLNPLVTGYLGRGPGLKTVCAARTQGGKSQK
Chain of CYP3A4 (P08684 whole entry): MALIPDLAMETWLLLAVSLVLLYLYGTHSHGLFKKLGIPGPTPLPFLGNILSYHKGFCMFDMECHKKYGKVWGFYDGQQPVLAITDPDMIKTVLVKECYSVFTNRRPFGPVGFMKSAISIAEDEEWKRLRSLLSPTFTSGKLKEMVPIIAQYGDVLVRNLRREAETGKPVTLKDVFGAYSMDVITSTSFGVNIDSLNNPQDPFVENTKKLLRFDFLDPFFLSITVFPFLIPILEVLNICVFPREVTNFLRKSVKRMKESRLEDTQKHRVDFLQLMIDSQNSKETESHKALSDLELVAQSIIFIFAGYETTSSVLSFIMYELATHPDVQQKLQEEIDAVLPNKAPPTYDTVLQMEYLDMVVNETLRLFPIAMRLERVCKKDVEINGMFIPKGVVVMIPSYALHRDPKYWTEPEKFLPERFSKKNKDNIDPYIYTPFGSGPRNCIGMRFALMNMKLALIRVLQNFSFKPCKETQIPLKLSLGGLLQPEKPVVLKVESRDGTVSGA
Chain of CYP2C9 (P11712 whole entry): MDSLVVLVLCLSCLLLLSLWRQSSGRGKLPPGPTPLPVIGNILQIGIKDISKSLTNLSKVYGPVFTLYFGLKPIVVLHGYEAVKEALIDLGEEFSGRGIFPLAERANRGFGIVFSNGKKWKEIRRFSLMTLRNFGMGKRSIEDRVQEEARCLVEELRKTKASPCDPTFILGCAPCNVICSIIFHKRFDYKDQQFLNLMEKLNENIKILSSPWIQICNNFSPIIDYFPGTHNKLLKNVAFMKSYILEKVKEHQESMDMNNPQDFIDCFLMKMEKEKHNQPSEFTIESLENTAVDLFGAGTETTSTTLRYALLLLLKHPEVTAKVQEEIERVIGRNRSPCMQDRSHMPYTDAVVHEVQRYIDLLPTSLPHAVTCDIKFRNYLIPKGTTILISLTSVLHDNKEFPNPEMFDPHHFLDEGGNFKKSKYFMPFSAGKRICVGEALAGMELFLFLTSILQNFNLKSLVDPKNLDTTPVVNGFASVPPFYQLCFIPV
Chain of CYP2C19 (P33261 whole entry): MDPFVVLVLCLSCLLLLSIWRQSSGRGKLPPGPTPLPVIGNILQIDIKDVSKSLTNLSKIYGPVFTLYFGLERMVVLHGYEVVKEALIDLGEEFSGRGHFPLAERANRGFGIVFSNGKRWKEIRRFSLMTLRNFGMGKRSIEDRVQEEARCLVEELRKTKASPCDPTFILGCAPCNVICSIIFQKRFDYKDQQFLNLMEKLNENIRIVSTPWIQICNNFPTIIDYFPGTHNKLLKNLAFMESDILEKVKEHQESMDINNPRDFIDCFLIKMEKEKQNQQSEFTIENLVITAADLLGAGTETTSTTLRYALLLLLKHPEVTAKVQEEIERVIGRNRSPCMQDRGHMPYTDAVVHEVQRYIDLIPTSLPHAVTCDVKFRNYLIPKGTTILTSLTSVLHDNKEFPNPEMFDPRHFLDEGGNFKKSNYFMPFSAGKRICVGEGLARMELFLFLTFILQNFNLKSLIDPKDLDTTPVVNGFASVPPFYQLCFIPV
Chain of CYP2D6 (P10635 whole entry): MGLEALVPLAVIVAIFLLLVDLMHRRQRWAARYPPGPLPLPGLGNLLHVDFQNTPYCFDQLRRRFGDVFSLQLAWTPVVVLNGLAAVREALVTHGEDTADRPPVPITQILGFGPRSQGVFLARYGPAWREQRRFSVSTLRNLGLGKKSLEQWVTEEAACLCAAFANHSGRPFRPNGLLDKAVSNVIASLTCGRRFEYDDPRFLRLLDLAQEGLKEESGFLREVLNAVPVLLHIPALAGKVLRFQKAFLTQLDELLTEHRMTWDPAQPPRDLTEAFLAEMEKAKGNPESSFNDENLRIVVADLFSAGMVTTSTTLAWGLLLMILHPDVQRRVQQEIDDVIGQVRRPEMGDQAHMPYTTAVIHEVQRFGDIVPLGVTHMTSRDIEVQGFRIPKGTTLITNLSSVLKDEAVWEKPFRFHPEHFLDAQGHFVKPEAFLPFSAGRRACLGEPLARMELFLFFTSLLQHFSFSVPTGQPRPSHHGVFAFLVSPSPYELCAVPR

Row | SMILES | inhibition at 30 min, 10 µM (CYP3A4; [1]) [%] | EC50 (GPR40; read-out: EC50) [µM] | inhibition at 30 min, 10 µM (CYP2C19; [2]) [%] | inhibition at 15 min, 10 µM (CYP1A2) [%] | inhibition at 1.5 h, 10 µM (CYP2C9; [3]) [%] | inhibition at 1 h, 10 µM (CYP2D6; [4]) [%] | inhibition at 30 min, 10 µM (CYP3A4; [5]) [%] | inhibition at 30 min, 10 µM (CYP2C19; [6]) [%] | inhibition at 1.5 h, 10 µM (CYP2C9; [7]) [%] | inhibition at 1 h, 10 µM (CYP2D6; [8]) [%] | EC50 (GPR40; values in text, read-out: EC50, concentration promoting activation of GPR40 protein by 50%) [µM]
1 | CC#C[C@@H](CC(=O)O)c1ccc(OCc2ccc(CN3CCC4(C=Cc5ccccc54)CC3)cc2)cc1 [Comparative Example 2, (3S)-3-(4-{[4-(1′H-spiro[indene-1,4′-piperidine]-1′-ylmethyl)benzyl]oxy}phenyl)hex-4-inoic acid, reference compound] | 42 | > 0.3 | 34.5 | 0 | 43.9 | 63.2 |  |  |  |  | 
2 | CC#CC(CC(=O)O)c1ccc(OCc2cccc(C3=CCC4(CC3)OCCO4)c2)cc1 (centres unmarked) [Example 1, 3-(4-(3-(1,4-dioxaspiro[4,5]dec-7-en-8-yl)benzyloxy)phenyl)hex-4-ynoic acid] | 12.7 |  | 18.3 | 0 | 42.8 | 1.9 |  |  |  |  | 
3 | CC#CC(CC(=O)O)c1ccc(OCc2ccc(C3=CCC4(CC3)OCCO4)cc2)cc1 (centres unmarked) [Example 3] |  | > 0.3 |  | 0 |  |  | 33.1 | 19.4 | 21.1 | 6 | 
4 | CC#CC(CC(=O)O)c1ccc(OCc2cccc(C3=CCC(=O)CC3)c2)cc1 (centres unmarked) [Example 4, 3-(4-(3-(4-oxocyclohex-1-enyl)benzyloxy)phenyl)hex-4-ynoic acid] | 35 | > 0.3 | 45.4 | 0 | 41.5 | 19.3 |  |  |  |  | 
5 | CC#C[C@@H](CC(=O)O)c1ccc(OCc2cccc(C3=CCC4(CC3)OCCO4)c2)cc1 [Example 7, (3S)-3-(4-(3-(1,4-dioxaspiro[4,5]dec-7-en-8-yl)benzyloxy)phenyl)hex-4-ynoic acid] | 15.5 | < 0.2 | 3.7 | 4.3 | 47.1 | 13.9 |  |  |  |  | < 0.2
6 | CC#C[C@@H](CC(=O)O)c1ccc(OCc2ccc(CN3CCc4ccccc4C3)cc2)cc1 [Example 21, (S)-3-(4-(4-((3,4-dihydroisoquinoline-2(1H)-yl)methyl)benzyloxy)phenyl)hex-4-ynoic acid] | 27.3 | 0.2 to 0.3 | 46.5 | 4 | 75.9 | 16.1 |  |  |  |  | 
7 | CC#C[C@@H](CC(=O)O)c1ccc(OCc2ccc(CN3CCC(c4ccccc4)CC3)cc2)cc1 [Example 26, (S)-3-(4-(4-((4-phenylpiperidine-1-yl)methyl)benzyloxy)phenyl)hex-4-ynoic acid] | 14.1 | > 0.3 | 13.2 | 0.7 | 31.5 | 2.3 |  |  |  |  | 
8 | CC#C[C@@H](CC(=O)O)c1ccc(OCc2ccc(CN3CCN(c4ccc(OCOC)cc4)CC3)cc2)cc1 [Example 29, (S)-3-(4-(4-((4-(4-(methoxymethoxy)phenyl)piperazine-1-yl)methyl)benzyloxy)phenyl)hex-4-ynoic acid] | 0 | 0.2 to 0.3 | 9.7 | 0.7 | 26.7 | 18.2 |  |  |  |  | 
9 | CC#C[C@@H](CC(=O)O)c1ccc(OCc2ccc(CN3CCN(c4ccc(OCCCS(C)(=O)=O)cc4)CC3)cc2)cc1 [Example 36, (S)-3-(4-(4-((4-(4-(3-(methylsulfonyl)propoxy)phenyl)piperazine-1-yl)methyl)benzyloxy)phenyl)hex-4-ynoic acid] | 11.5 | > 0.3 | 10.8 | 16.6 | 0 | 1.8 |  |  |  |  | 
10 | CC#C[C@@H](CC(=O)O)c1ccc(OCc2ccc(CN3Cc4ccccc4C3)cc2)cc1 [Example 38, L-lysine (S)-3-(4-(4-(isoindoline-2-ylmethyl)benzyloxy)phenyl)hex-4-ynoate] |  |  |  | 2.2 |  |  | 18.1 | 13.2 | 34.4 | 15.6 | 
